Legend:
[1] = target: T1, kappa opioid receptor (KOR) (Mus musculus, UniProt P33534); assay: biochemical; type: binding, mice
[2] = target: T2, delta opioid receptor (DOR) (Mus musculus, UniProt P32300); assay: DOR competitive radioligand binding; set-up: species or system mice
mu opioid receptor (MOR) [3] = target: T3, mu opioid receptor (MOR) (Mus musculus, UniProt P42866); assay: MOR competitive radioligand binding; set-up: species or system mice
morphine dependent mice = assay: Opioid withdrawal assay in morphine-pelleted mice; type: in vivo; details: for Wet dog shakes at 30 mg/kg: 30 mg/kg s.c., compared with 1 mg/kg naloxone and naltrexone; for Escape jumps, effect of dose / Wet dog shakes, effect of dose: increasing dose up to 30 mg/kg s.c.; for Precipitated withdrawal symptoms, overall comparison: s.c.
[4] = target: T1, kappa opioid receptor (KOR); assay: KOR [35S]-GTPγS binding assay
[5] = target: T2, delta opioid receptor (DOR); assay: DOR [35S]-GTPγS binding assay
antinociception = assay: Warm-water tail flick assay, acute agonist effect; details: up to 30 mg/kg dose; s.c.
mu opioid receptor (MOR) [6] = target: T3, mu opioid receptor (MOR); assay: MOR [35S]-GTPγS functional assay; type: biochemical, mice
KOR = details: cited from earlier work
[7] = 1 mg/kg s.c., morphine-pelleted mice, counted over 20 minutes

T3 sequence (P42866 whole entry): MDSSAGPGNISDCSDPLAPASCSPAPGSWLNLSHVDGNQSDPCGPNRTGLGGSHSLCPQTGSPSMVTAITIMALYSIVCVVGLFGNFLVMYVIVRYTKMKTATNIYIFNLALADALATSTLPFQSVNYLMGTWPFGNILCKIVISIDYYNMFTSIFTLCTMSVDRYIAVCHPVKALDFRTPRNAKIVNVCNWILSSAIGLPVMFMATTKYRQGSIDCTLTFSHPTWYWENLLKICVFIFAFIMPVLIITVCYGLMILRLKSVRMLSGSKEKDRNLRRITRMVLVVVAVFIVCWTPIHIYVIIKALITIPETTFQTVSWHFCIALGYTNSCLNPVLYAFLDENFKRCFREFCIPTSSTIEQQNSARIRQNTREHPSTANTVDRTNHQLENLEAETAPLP
T1 sequence (P33534 whole entry): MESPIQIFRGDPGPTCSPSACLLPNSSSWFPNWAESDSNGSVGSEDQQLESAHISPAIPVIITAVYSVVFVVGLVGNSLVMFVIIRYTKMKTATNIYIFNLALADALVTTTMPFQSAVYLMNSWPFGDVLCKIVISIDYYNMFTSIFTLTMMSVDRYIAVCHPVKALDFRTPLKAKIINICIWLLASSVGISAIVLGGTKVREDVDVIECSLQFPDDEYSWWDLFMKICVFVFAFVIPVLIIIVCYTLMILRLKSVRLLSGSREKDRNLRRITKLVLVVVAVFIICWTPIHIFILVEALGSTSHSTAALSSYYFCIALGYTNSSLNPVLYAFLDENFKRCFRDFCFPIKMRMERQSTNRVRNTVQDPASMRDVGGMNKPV
T2 sequence (P32300 whole entry): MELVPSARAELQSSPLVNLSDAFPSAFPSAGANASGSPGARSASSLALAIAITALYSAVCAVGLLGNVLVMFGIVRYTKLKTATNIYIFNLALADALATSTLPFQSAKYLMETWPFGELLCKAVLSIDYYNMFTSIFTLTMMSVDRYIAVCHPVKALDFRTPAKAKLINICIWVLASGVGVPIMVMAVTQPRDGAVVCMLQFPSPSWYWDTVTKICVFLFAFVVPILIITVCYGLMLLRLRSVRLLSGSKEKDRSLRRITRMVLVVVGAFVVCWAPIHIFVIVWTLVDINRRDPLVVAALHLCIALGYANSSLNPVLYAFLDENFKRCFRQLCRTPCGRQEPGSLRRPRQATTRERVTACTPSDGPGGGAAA

SMILES | Ki [1] [nM] | Ki [2] [nM] | Ki (mu opioid receptor (MOR) [3]) [nM] | further results
O=C(O[C@@]12CCC(=O)[C@@H]3Oc4c(O)ccc5c4[C@@]31CCN(CC1CC1)[C@@H]2C5)c1ccccc1 [Compound 5, 17-cyclopropylmethyl-4,5α-epoxy-3-hydroxy-14β-O-(benzoyloxy)morphinan-6-one] | 586 ± 32.4 | > 10000 | 123 ± 38.2 | Selectivity δ/κ ([1]; Table 1, Ki ratio): >17; Selectivity δ/μ (mu opioid receptor (MOR) [3]; Table 1, Ki ratio): >81
O=C(O[C@@]12CCC(=O)[C@@H]3Oc4c(O)ccc5c4[C@@]31CCN(CC1CC1)[C@@H]2C5)c1ccncc1 [Compound 4, 17-cyclopropylmethyl-4,5α-epoxy-3-hydroxy-14β-O-(pyridyl-4’-carboxy)morphinan-6-one] | 49.2 ± 20.4 | 405 ± 235 | 5.58 ± 1.34 | 
O=C(O[C@@]12CCC(=O)[C@@H]3Oc4c(O)ccc5c4[C@@]31CCN(CC1CC1)[C@@H]2C5)c1ccccn1 [Compound 2, 17-cyclopropylmethyl-4,5α-epoxy-3-hydroxy-14β-O-(pyridyl-2’-carboxy)morphinan-6-one] | 25.5 ± 6.5 | 117 ± 18 | 0.14 ± 0.03 | Selectivity to the MOR over the KOR and the DOR (mu opioid receptor (MOR) [3]): above 30 fold
O=C(N[C@@]12CCC(=O)[C@@H]3Oc4c(O)ccc5c4[C@@]31CCN(CC1CC1)[C@@H]2C5)c1cccnc1 [Compound 11, 17-cyclopropylmethyl-4,5α-epoxy-3-hydroxy-14β-N-[(3’-pyridyl)carboxamido]morphinan-6-one] | 0.16 ± 0.01 | 39.9 ± 0.5 | 0.75 ± 0.28 | Wet dog shakes at 30 mg/kg (morphine dependent mice): resembled the effect of 1 mg/kg naloxone and naltrexone; Escape jumps, effect of dose (morphine dependent mice): dose-response increasing effect; Wet dog shakes, effect of dose (morphine dependent mice): dose-response increasing effect; Precipitated withdrawal symptoms, overall comparison (morphine dependent mice; morphine-pelleted mice): behaved similarly to naltrexone; EC50 [4]: 0.56 ± 0.06 nM; EC50 [5]: 3.2 ± 2 nM; Agonist effect in tail flick assay (antinociception): None of the compounds produced any significant agonist effect
O=C(N[C@@]12CCC(=O)[C@@H]3Oc4c(O)ccc5c4[C@@]31CCN(CC1CC1)[C@@H]2C5)c1ccccc1 [Compound 13, 17-cyclopropylmethyl-4,5α-epoxy-3-hydroxy-14β-N-(benzamido)morphinan-6-one] | 0.12 ± 0.001 | 57.3 ± 4.3 | 4.34 ± 0.7 | 
O=C(O[C@@]12CCC(=O)[C@@H]3Oc4c(O)ccc5c4[C@@]31CCN(CC1CC1)[C@@H]2C5)c1cc2ccccc2cn1 [Compound 6, 17-cyclopropylmethyl-4,5α-epoxy-3-hydroxy-14β-O-(isoquinolyl-3’-carboxy)morphinan-6-one] | > 10000 | > 10000 | 68.4 ± 6 | Selectivity to the MOR over the KOR and the DOR (mu opioid receptor (MOR) [3]): above 30 fold; Selectivity δ/μ (mu opioid receptor (MOR) [3]; Table 1, Ki ratio): >146; Selectivity κ/μ (mu opioid receptor (MOR) [3]; Table 1, Ki ratio): >146
O=C(N[C@@]12CCC(=O)[C@@H]3Oc4c(O)ccc5c4[C@@]31CCN(CC1CC1)[C@@H]2C5)c1ccc2ccccc2c1 [Compound 17] | 0.33 ± 0.02 | 10.5 ± 1.4 | 6.22 ± 4.01 | 
O=C(O[C@@]12CCC(=O)[C@@H]3Oc4c(O)ccc5c4[C@@]31CCN(CC1CC1)[C@@H]2C5)c1cnc2ccccc2c1 [Compound 8, 17-cyclopropylmethyl-4,5α-epoxy-3-hydroxy-14β-O-(quinolyl-3’-carboxy)morphinan-6-one] | 148 ± 55.5 | 818 ± 507 | 2.69 ± 0.72 | Selectivity to the MOR over the KOR and the DOR (mu opioid receptor (MOR) [3]): above 30 fold
O=C(N[C@@]12CCC(=O)[C@@H]3Oc4c(O)ccc5c4[C@@]31CCN(CC1CC1)[C@@H]2C5)c1ccccn1 [Compound 10, 17-cyclopropylmethyl-4,5α-epoxy-3-hydroxy-14β-N-[(2’-pyridyl)carboxamido]morphinan-6-one] | 0.36 ± 0.01 | 94.5 ± 6.5 | 1.51 ± 0.34 | Wet dog shakes at 3 mg/kg (morphine dependent mice; 3 mg/kg s.c.): minimal number of wet dog shakes; Wet dog shakes at 10 mg/kg (morphine dependent mice; 10 mg/kg s.c., same level at 30 mg/kg): dramatic increase; Wet dog shakes at high doses (morphine dependent mice; 10 and 30 mg/kg s.c., compared with 1 mg/kg naloxone): still lower than that of 1 mg/kg naloxone; Escape jumps, effect of dose (morphine dependent mice): clear decrease of escape jumps as its dose increased (not significantly though); Precipitated withdrawal symptoms, overall comparison (morphine dependent mice; morphine-pelleted mice): less severe withdrawal symptoms than naloxone at high doses; EC50 [4]: 1.74 ± 0.5 nM; EC50 [5]: 19.7 ± 7.4 nM; Agonist effect in tail flick assay (antinociception): None of the compounds produced any significant agonist effect
O=C(O[C@@]12CCC(=O)[C@@H]3Oc4c(O)ccc5c4[C@@]31CCN(CC1CC1)[C@@H]2C5)c1ccc2ccccc2n1 [Compound 7, 17-cyclopropylmethyl-4,5α-epoxy-3-hydroxy-14β-O-(quinolyl-2’-carboxy)morphinan-6-one] | 67.2 ± 36.7 | 22.8 ± 19.5 | 1.44 ± 0.32 | 
O=C(CNC(=O)c1ccccn1)N[C@@]12CCC(=O)[C@@H]3Oc4c(O)ccc5c4[C@@]31CCN(CC1CC1)[C@@H]2C5 [Compound 20, 17-cyclopropylmethyl-4,5α-epoxy-3-hydroxy-14β-N-{2’-[(pyridin-2”-yl)carboxamido]acetamido}morphinan-6-one] | 0.14 ± 0.01 | 0.37 ± 0.04 | 0.3 ± 0.01 | MOR agonism / efficacy in [35S]-GTPγS binding assay (in words) (mu opioid receptor (MOR) [6]): low efficacy MOR partial agonists
O=C(N[C@@]12CCC(=O)[C@@H]3Oc4c(O)ccc5c4[C@@]31CCN(CC1CC1)[C@@H]2C5)c1cc2ccccc2cn1 [Compound 14, 17-cyclopropylmethyl-4,5α-epoxy-3-hydroxy-14β-N-[(3’-isoquinolyl)carboxamido]-morphinan-6-one] | 0.27 ± 0.02 | 25.1 ± 1.8 | 3.5 ± 1.87 | Wet dog shakes at 30 mg/kg (morphine dependent mice): resembled the effect of 1 mg/kg naloxone and naltrexone; Escape jumps, effect of dose (morphine dependent mice): no significant dose-response effect; Wet dog shakes, effect of dose (morphine dependent mice): dose-response increasing effect; Precipitated withdrawal symptoms, overall comparison (morphine dependent mice; morphine-pelleted mice): behaved similarly to naltrexone; EC50 [4]: 2.75 ± 0.71 nM; EC50 [5]: 14.2 ± 1.9 nM; Agonist effect in tail flick assay (antinociception): None of the compounds produced any significant agonist effect
O=C1CC[C@@]2(O)[C@H]3Cc4ccc(O)c5c4[C@@]2(CCN3CC2CC2)[C@H]1O5 [NTX, naltrexone, reference compound] |  |  |  | Escape jumps (morphine dependent mice; [7]): over twenty times; Wet dog shakes (morphine dependent mice; [7]): above seven times
O=C(O[C@@]12CCC(=O)[C@@H]3Oc4c(O)ccc5c4[C@@]31CCN(CC1CC1)[C@@H]2C5)c1cccnc1 [Compound 3, 17-cyclopropylmethyl-4,5α-epoxy-3-hydroxy-14β-O-(pyridyl-3’- carboxy)morphinan-6-one] | 47.8 ± 8.5 | 170 ± 12.6 | 1.59 ± 0.61 | Selectivity to the MOR over the KOR and the DOR (mu opioid receptor (MOR) [3]): above 30 fold
O=C(N[C@@]12CCC(=O)[C@@H]3Oc4c(O)ccc5c4[C@@]31CCN(CC1CC1)[C@@H]2C5)c1ccncc1 [Compound 12, 17-cyclopropylmethyl-4,5α-epoxy-3-hydroxy-14β-N-[(4’-pyridyl)carboxamido]morphinan-6-one] | 0.33 ± 0.01 | 10.9 ± 1.3 | 0.82 ± 0.33 | 
O=C(Cc1ccccn1)N[C@@]12CCC(=O)[C@@H]3Oc4c(O)ccc5c4[C@@]31CCN(CC1CC1)[C@@H]2C5 [Compound 18, 17-cyclopropylmethyl-4,5α-epoxy-3-hydroxy-14β-N-[2’-(pyridin-2”-yl)acetamido]morphinan-6-one] | 0.19 ± 0.03 | 3.92 ± 0.12 | 0.29 ± 0.04 | MOR agonism / efficacy in [35S]-GTPγS binding assay (in words) (mu opioid receptor (MOR) [6]): MOR partial agonist with relatively high efficacy
O=C(N[C@@]12CCC(=O)[C@@H]3Oc4c(O)ccc5c4[C@@]31CCN(CC1CC1)[C@@H]2C5)c1ccc2ccccc2n1 [Compound 15, 17-cyclopropylmethyl-4,5α-epoxy-3-hydroxy-14β-N-[(2’-quinolyl)carboxamido]morphinan-6-one] | 0.26 ± 0.01 | 15.1 ± 0.6 | 9.09 ± 4.94 | 
O=C(N[C@@]12CCC(=O)[C@@H]3Oc4c(O)ccc5c4[C@@]31CCN(CC1CC1)[C@@H]2C5)c1cnc2ccccc2c1 [Compound 16, 17-cyclopropylmethyl-4,5α-epoxy-3-hydroxy-14β-N-[(3’-quinolyl)carboxamido]morphinan-6-one] | 0.13 ± 0.02 | 1.48 ± 0.05 | 1.13 ± 0.25 | 
O=C(CCc1ccccn1)N[C@@]12CCC(=O)[C@@H]3Oc4c(O)ccc5c4[C@@]31CCN(CC1CC1)[C@@H]2C5 [Compound 19, 17-cyclopropylmethyl-4,5α-epoxy-3-hydroxy-14β-N-[3’-(pyridin-2”-yl)propanamido]morphinan-6-one] | 0.17 ± 0.02 | 9.1 ± 0.5 | 0.32 ± 0.04 | MOR agonism / efficacy in [35S]-GTPγS binding assay (in words) (mu opioid receptor (MOR) [6]): low efficacy MOR partial agonists
O=C(O[C@@]12CCC(=O)[C@@H]3Oc4c(O)ccc5c4[C@@]31CCN(CC1CC1)[C@@H]2C5)c1ccc2ccccc2c1 [Compound 9, 17-cyclopropylmethyl-4,5α-epoxy-3-hydroxy-14β-O-(2-naphthoyloxy)morphinan-6-one] | 46.6 ± 13.5 | 907 ± 193 | 225 ± 46.6 | 
Oc1cccc2c1O[C@H]1CCC[C@H]3CN(CC4CC4)CC[C@@]231 [LTC-274, (-)-3-cyclopropylmethyl-2,3,4,4α,5,6,7,7α-octahydro-1H-benzofuro[3,2-e]isoquinolin-9-ol] |  |  |  | Emax (KOR partial agonist) (KOR): 23%

Source: publication PMC4373589 (Journal of medicinal chemistry, 2013)
